pKd: −log10 of the molar value. Entries after “also recorded” stand apart in the source; their conditions may differ. Values belong to the molecule of their own block, whether it stands above or below them.
Columns and labels:
human insulin promoter = assay: Insulin promoter-GFP (ins-GFP transgene) assay in T6PNE cells; type: cell-based; conditions: for repression of insulin promoter activity (qualitative): T6PNE ins-eGFP
Excerpt: Primary β-cells are in short supply and have a strong tendency to undergo apoptosis when manipulated in culture. Therefore, a β-cell model was used for the studies regarding β-cell growth and differentiation. T6PNE cells were derived from human fetal islets and were engineered to express the transcription factors PDX-1, NeuroD1, and E47, which are all present in the human β-cell. […] Titrations were used to measure the mRNA or protein amount of insulin expression. In order to adapt the cell line for HTS assays, a lentiviral vector expressing the insulin promoter-e green fluorescent protein (GFP) cassette ins-GFP transgene was used to infect T6PNE. As a result, compounds that targeted the insulin promoter could be visibly detected by changes in the green channel (observing GFP). […] This increase correlates with that of the endogenous insulin message. Therefore, expression in the transfunctioned cell can be used as a baseline so both up and down regulators of the insulin promoter can be monitored in the screening assays. […] of the insulin promoter are useful for analyzing the governing pathways in diabetes. However, both up and down modulators were screened for. […] Insulin expression was monitored and visualized by the ins-GFP transgene. Hits were determined and dependent on the ability to differentiate between a baseline condition and the corresponding positive or negative control. […]
The HTS was performed in a 384-well format where primed T6PNE cells express the ins-GFP transgene and the test compound was added 24 hours later. […] The Images were then analyzed using algorithms (Jeff Price at the Screening Center at the Burnham Institute). Images of each well were captured in the blue channel (to evaluate cell number), the green channel (a readout for insulin gene expression) and the red channel (to eliminate autofluorescent compounds). […] Furthermore, hits are determined by applying threshold intensity gates on the green channel and counting the number of cells above or below that gate in a given well. […]

[1] = test system: endogenous insulin message; assay: Endogenous insulin message in T6PNE cells; type: cell-based, human
Excerpt: Primary β-cells are in short supply and have a strong tendency to undergo apoptosis when manipulated in culture. Therefore, a β-cell model was used for the studies regarding β-cell growth and differentiation. T6PNE cells were derived from human fetal islets and were engineered to express the transcription factors PDX-1, NeuroD1, and E47, which are all present in the human β-cell. […] Titrations were used to measure the mRNA or protein amount of insulin expression. In order to adapt the cell line for HTS assays, a lentiviral vector expressing the insulin promoter-e green fluorescent protein (GFP) cassette ins-GFP transgene was used to infect T6PNE. As a result, compounds that targeted the insulin promoter could be visibly detected by changes in the green channel (observing GFP). […] Therefore, expression in the transfunctioned cell can be used as a baseline so both up and down regulators of the insulin promoter can be monitored in the screening assays. […] Insulin expression was monitored and visualized by the ins-GFP transgene. Hits were determined and dependent on the ability to differentiate between a baseline condition and the corresponding positive or negative control. […]
A few of these were selected for further evaluation. […] The initial confirmatory assay of BIM5078 was performed by measuring the readout of the insulin-GFP transgene. […]

rat HNF4α LBD = target: T1, rat HNF4α LBD (Rattus norvegicus, UniProt P22449); assay: Direct binding by quenching of intrinsic fluorescence of HNF4α LBD; conditions: quenching of Tyr/Trp intrinsic fluorescence
T1 sequence (P22449 147-377 limits assumed): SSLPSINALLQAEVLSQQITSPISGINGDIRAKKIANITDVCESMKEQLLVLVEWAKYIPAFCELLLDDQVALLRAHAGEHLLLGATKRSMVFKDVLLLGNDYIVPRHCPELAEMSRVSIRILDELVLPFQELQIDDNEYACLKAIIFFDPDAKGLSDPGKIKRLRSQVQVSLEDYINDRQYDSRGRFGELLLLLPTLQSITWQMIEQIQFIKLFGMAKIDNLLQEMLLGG
Method: FIGS. 12A and 12B show BIM5078 binding to HNF4α ligand-binding domain (LBD). A. Binding of BIM5078 was analyzed by quenching of intrinsic fluorescence of rat HNF4α LBD aromatic amino acids Tyr/Trp. […] B. BIM5078 was docked to rat HNF4α LBD (PDB Code: 1m7w) using the program BioMedCache. […] Moreover, the chloro group of BIM5078 forms a hydrophobic interaction with the side chain of the binding-pocket residue Val 178.

human PPARγ = target: T2, human PPARγ (Homo sapiens, UniProt P37231); assay: PPAR response element (PPRE)-luciferase reporter assay in HeLa cells; type: cell-based; conditions: enhanced by co-transfection with PPARγ expression vector
T2 construct: expressed in transfected cells; host or cells: HeLa cells
T2 sequence (P37231 1-505): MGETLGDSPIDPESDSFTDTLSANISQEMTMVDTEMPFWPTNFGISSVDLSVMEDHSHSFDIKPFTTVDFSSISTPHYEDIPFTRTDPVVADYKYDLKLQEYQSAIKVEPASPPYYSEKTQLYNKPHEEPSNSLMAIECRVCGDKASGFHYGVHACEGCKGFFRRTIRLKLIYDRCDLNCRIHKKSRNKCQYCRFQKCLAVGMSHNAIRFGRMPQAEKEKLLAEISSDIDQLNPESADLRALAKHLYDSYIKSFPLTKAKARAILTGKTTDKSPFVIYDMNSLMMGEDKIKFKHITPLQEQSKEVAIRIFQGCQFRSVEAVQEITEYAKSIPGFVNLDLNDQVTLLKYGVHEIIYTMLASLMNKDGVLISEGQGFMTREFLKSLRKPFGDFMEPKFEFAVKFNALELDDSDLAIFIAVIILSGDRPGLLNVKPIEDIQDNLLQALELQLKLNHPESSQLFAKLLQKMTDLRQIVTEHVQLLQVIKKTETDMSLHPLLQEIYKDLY
Method: The core structure of BIM5078, benzimidazole, is related to known PPARγ compounds that functions as agonists or antagonists. BIM5078 was used in a PPAR response element (PPRE)-luciferase reporter assay. HeLa cells were co-transfected with a PPAR response element (PPRE) reporter plasmid and a human PPARγ expression vector. […] Known PPARγ agonists were used as positive controls. The same PPARγ agonist compounds were tested on T6PNE ins-eGFP for their ability to repress the insulin promoter. Known PPARγ agonists are unable to suppress insulin gene transcription. Similarly, other PPAR agonists of the alpha and delta class were also negative in the assay. However, because HNF4α also binds to PPREs, BIM5078's ability to bind HNF4α was further investigated.

HBV = assay: HBsAg expression in Huh7 cells transfected with wild type HBV construct (pWTD); type: cell-based, Hepatitis B virus; conditions: GP33 and GP36 doublet bands
Excerpt: BIM5078 is an HNF4α antagonist and can be useful in treatment of diseases involving HNF4α modulation. There are a number of HNF4α binding sites in the HBV genome, including the enhancer region, the core promoter and the polymerase. BIM5078 can downregulate the core and polymerase, and it has been discovered that it can effectively suppress or eliminate HBV proliferation. Also, the HNF4α binding sites are well-conserved and no mutations of these sites have yet been discovered in the various HBV strains. Thus, targeting HNF4α can circumvent the resistance seen with traditional therapies. […] The ability of the HNF4α antagonist BIM5078 to reduce viral production in Huh7 cells transfected with the wild-type HBV construct (pWTD) was tested. […] The large decrease in the two glycosylation forms of the surface antigen was visualized as doublet bands (FIG. 11).

HNF1α = HNF1α transcription; type: cell-based
Method: HNF1α is a downstream target of HNF4α and has a known binding site on the human insulin gene promoter. […] It is unclear whether HNF4α is modulating the insulin promoter directly or indirectly through a downstream target. Overexpression of HNF1α or HNF4α would overcome the repressive effects of BIM5078. The repressive effect of BIM5078 was lost when it was added to T6PNE cells with high levels of induced E47 (FIG. 10). High E47 levels are thought to resemble the normal state of a (3-cell while low levels of E47 to simulate the stress condition.

HNF4α = target: T3, HNF4α (Homo sapiens, UniProt P41235); assay: HNF4α subcellular localization; type: cell-based
T3 construct: endogenous in cells
T3 sequence (P41235 1-474): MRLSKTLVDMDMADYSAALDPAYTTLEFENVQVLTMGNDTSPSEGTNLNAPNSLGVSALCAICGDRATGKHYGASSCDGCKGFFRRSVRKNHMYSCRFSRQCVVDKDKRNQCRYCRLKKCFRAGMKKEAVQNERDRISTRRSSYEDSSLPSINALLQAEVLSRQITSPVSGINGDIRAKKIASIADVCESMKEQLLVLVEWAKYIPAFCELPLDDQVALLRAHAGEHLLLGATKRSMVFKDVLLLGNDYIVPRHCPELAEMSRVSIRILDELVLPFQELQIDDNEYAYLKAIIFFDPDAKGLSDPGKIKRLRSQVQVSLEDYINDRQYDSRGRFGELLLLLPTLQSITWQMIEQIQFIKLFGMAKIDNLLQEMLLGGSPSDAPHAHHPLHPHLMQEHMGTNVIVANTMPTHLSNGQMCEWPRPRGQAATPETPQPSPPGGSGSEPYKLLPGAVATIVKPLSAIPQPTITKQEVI
Excerpt: Many ligands for nuclear receptor subfamilies induce the translocation of their receptors between the cytoplasm and the nucleus.

[2] = hoFH patients, 10 mg/day added to maximal-dose statin regimen; cited from earlier work

- melting point: 154 to 156 °C
Compound: O=[N+]([O-])c1cccc(S(=O)(=O)n2cnc3ccccc32)c1 [BI-6001, 1-(3-Nitrophenylsulfonyl)-1H-benzo[d]imidazole]

- melting point: 110 to 112 °C
Compound: CCOC(=O)c1ccc(Cl)c(S(=O)(=O)n2c(C)nc3ccccc32)c1 [BI-6013, 1-(5-Carbethoxy-2-chlorophenylsulfonyl)-2-methyl-1H-benzo[d]imidazole]

- melting point: 148 to 150 °C
Compound: Cc1nc2ccccc2n1S(=O)(=O)c1cccc([N+](=O)[O-])c1 [BI-6002, 2-Methyl-1-(3-nitrophenylsulfonyl)-1H-benzo[d]imidazole]

Compound: CCCCCCCCCCCCCCCC(=O)O [palmitic acid, reference compound]
- repression of insulin promoter activity (qualitative) (human insulin promoter): suppresses the insulin promoter activity in a dose-dependent fashion

Compound: Cc1nc2ccccc2n1S(=O)(=O)c1cc([N+](=O)[O-])ccc1Cl [BIM5078, 1-[(2′-chloro-5-nitrophenyl)sulfonyl]-2-methyl-1H-benzimidazole]
- suppression of GFP expression (insulin-GFP transgene) (human insulin promoter; 5 μM, T6PNE cells): up to 30 fold
- repression of insulin promoter activity (qualitative) (human insulin promoter): downregulator of human insulin promoter activity
- repression of insulin message ([1]; 5 μM, insulin message induced by 1 μM 4-hydroxytamoxifen): 6 fold
- repressive effect on insulin expression at high E47 ([1]; T6PNE cells with high levels of induced E47 (high 4OHT)): lost
- pKd (rat HNF4α LBD): 7.92
- activation of PPRE reporter (human PPARγ): activated the PPRE
- HBV surface antigen (HBsAg) level (HBV): decreased the HBsAg protein expression; also recorded: decreased their levels of surface antigen
- effect on HNF1α transcription (HNF1α): decrease the HNF1α transcription
- localization of HNF4α upon compound addition (HNF4α): localized entirely in the nucleus

- melting point: 133 to 135 °C
Compound: O=C(c1cccc([N+](=O)[O-])c1)n1cnc2ccccc21 [BI-6012, 1-(3-Nitrobenzoyl)-1H-benzo[d]imidazole]

Compound: O=C1[C@H](CC[C@H](O)c2ccc(F)cc2)[C@@H](c2ccc(O)cc2)N1c1ccc(F)cc1 [ezetimibe]
- total reduction of LDL-C levels [2]: 27%

- melting point: 159 to 161 °C
Compound: Cc1ccc([N+](=O)[O-])cc1S(=O)(=O)n1cnc2ccccc21 [BI-6016, 1-(2-Methyl-5-nitrobenzenesulfonyl)benzimidazole]

- melting point: 149 to 151 °C
Compound: O=C(c1cc([N+](=O)[O-])ccc1Cl)n1cnc2ccccc21 [BI-6010, 1-(2-Chloro-5-nitrobenzoyl)-1H-benzo[d]imidazole]

- melting point: 120 to 122 °C
Compound: Cc1nc2ccccc2n1C(=O)c1cccc([N+](=O)[O-])c1 [BI-6011, 2-Methyl-1-(3-nitrobenzoyl)-1H-benzo[d]imidazole]

- melting point: 157 to 159 °C
Compound: Cc1nc2ccccc2n1C(=O)c1cc([N+](=O)[O-])ccc1Cl [BI-6009, 1-(2-Chloro-5-nitrobenzoyl)-2-methyl-1H-benzo[d]imidazole]

Reference: patent US20100317706A1, “HNF4alpha MODULATORS AND METHODS OF USE” (Bumham Institute for Medical Research, priority 2009, published 2010)
